For 20 compounds, IC50 results are on record in patent US20160130278A1 (TAISHO PHARMACEUTICAL CO., LTD, priority 2013, published 2016).

This test addresses T1, human type 1 glycine transporter (GlyT1) (Homo sapiens, UniProt P48067).
T1 construct: T98G cells (glioma cells) expressing human type 1 glycine transporter (GlyT1) were used
T1 sequence (P48067 1-706): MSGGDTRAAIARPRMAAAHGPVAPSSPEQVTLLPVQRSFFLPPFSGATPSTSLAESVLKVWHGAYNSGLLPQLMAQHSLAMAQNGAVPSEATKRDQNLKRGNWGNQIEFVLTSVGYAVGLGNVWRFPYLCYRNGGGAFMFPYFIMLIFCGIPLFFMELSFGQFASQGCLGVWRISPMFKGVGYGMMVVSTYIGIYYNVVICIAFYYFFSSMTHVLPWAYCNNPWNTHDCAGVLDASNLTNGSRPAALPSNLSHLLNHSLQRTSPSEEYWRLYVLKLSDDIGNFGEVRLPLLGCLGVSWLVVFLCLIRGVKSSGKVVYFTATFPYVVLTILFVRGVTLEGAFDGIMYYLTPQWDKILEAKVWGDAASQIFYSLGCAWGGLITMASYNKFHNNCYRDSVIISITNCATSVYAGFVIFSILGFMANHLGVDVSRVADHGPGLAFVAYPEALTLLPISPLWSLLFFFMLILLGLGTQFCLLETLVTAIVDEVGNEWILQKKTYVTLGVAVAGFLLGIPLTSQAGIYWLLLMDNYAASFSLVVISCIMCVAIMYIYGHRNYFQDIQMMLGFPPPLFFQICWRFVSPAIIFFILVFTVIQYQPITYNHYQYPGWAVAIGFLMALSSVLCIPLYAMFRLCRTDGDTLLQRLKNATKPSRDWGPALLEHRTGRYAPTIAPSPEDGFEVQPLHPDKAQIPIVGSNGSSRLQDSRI
The experiment in a line: Glycine uptake inhibition experiment ([3H]glycine uptake). It counts as cell-based. The following applies: GlyT1. An outline of the steps: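 T98G glioma cells expressing human GlyT1 were pretreated 10 min with compound in HEPES buffer pH 7.4 (0.2% BSA), then incubated with compound plus 250 nM final [3H]glycine for 15 min at room temperature. Intracellular radioactivity was counted after NaOH lysis; 10 μM ALX5407 defined non-specific uptake. IC50 came from 10^−9–10^−5 M curves.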
Compound `O=C(NC(c1cccc(-c2ccccn2)c1)C1(O)CCC(F)(F)CC1)c1nccc(C(F)(F)F)c1Cl` (single isomer, unassigned) [Compound 188, 3-chloro-N-{(4,4-difluoro-1-hydroxycyclohexyl)[3-(pyridin-2-yl)phenyl]methyl]-4-(trifluoromethyl)pyridine-2-carboxamide] showed an IC50 of 73 nM.

For `O=C(NC(c1cccc(-c2ccccn2)c1)C1(O)CCC(F)(F)CC1)c1ccnc(C(F)(F)F)c1Cl` (single isomer, unassigned) [Compound 189, 3-chloro-N-{(4,4-difluoro-1-hydroxycyclohexyl)[3-(pyridin-2-yl)phenyl]methyl}-2-(trifluoromethyl)pyridine-4-carboxamide], the IC50 stood at 200 nM.

As for `O=C(NC(c1cccc(-c2ccccn2)c1)C1(O)CCC(F)(F)CC1)c1cc(C(F)(F)F)ccc1Cl` (single isomer, unassigned) [Compound 190, 2-chloro-N-[(4,4-difluoro-1-hydroxycyclohexyl)[3-(pyridin-2-yl)phenyl]methyl}-5-(trifluoromethyl)benzamide], half-maximal inhibition (IC50) required 490 nM.

On to `CCn1cc(-c2cccc(C(NC(=O)c3cc(Cl)ccc3Cl)C3(O)CCC(F)(F)CC3)c2)cn1` (single isomer, unassigned) [Compound 193, 2,5-dichloro-N-{(4,4-difluroo-1-hydroxycyclohexyl)[3-(1-ethyl-1H-pyrazol-4-yl)phenyl]methyl}benzamide], for which the IC50 is 830 nM.

Compound `CCn1cc(-c2cccc(C(NC(=O)c3cc(Cl)ccc3Cl)C3(O)CCC(F)(F)CC3)c2)cn1` (single isomer, unassigned) [Compound 194, 2,5-dichloro-N-{(4,4-difluoro-1-hydroxycyclohexyl)[3-(1-ethyl-1H-pyrazol-4-yl)phenyl]methyl}benzamide] displayed an IC50 of 760 nM.

`CCn1cc(-c2cccc(C(NC(=O)c3cccc4ccccc34)C3(O)CCC(F)(F)CC3)c2)cn1` (single isomer, unassigned) [Compound 195, N-{(4,4-difluoro-1-hydroxycyclohexyl)[3-(1-ethyl-1H-pyrazol-4-yl)phenyl]methyl}naphthalene-1-carboxamide] yielded an IC50 of 1100 nM.

As for `CCn1cc(-c2cccc(C(NC(=O)c3cccc4ccccc34)C3(O)CCC(F)(F)CC3)c2)cn1` (single isomer, unassigned) [Compound 196, N-{(4,4-difluoro-1-hydroxycyclohexyl)[3-(1-ethyl-1H-pyrazol-4-yl)phenyl]methyl}naphthalene-1-carboxamide], the midpoint of inhibition, the IC50, lay at 290 nM.

`O=C(NC(c1ccccc1Cl)[C@]1(O)CC[C@@H](F)CC1)c1nccc(C(F)(F)F)c1Cl` (single isomer, unassigned) [Compound 197, 3-chloro-N-[(2-chlorophenyl)(cis-4-fluoro-1-hydroxycyclohexyl)methyl]-4-(trifluoromethyl)pyridine-2-carboxamide] had an IC50 of 53 nM.

`O=C(NC(c1ccccc1Cl)[C@]1(O)CC[C@H](F)CC1)c1nccc(C(F)(F)F)c1Cl` (single isomer, unassigned) [Compound 198, 3-chloro-N-[(2-chlorophenyl)(trans-4-fluoro-1-hydroxycyclohexyl)methyl]-4-(trifluoromethyl)pyridine-2-carboxamide] displayed a half-maximal inhibitory concentration (IC50) of 200 nM.

`O=C(NC(c1cccc(Cl)c1F)C1(O)CCC(F)CC1)c1nccc(C(F)(F)F)c1Cl` (single isomer, unassigned) [Compound 199, 3-chloro-N-[(3-chloro-2-fluorophenyl)(4-fluoro-1-hydroxycyclohexyl)methyl]-4-(trifluoromethyl)pyridine-2-carboxamide] yielded an IC50 of 82 nM.

Regarding `O=C(NC(c1cccc(Cl)c1F)C1(O)CCC(F)CC1)c1nccc(C(F)(F)F)c1Cl` (single isomer, unassigned) [Compound 200, 3-chloro-N-[(3-chloro-2-fluorophenyl)(4-fluoro-1-hydroxycyclohexyl)methyl}-4-(trifluoromethyl)pyridine-2-carboxamide], the concentration for half-maximal inhibition (IC50) was 64 nM.

In the case of `O=C(NC(c1cccc(Cl)c1F)C1(O)CCC(F)CC1)c1ccnc(C(F)(F)F)c1Cl` (single isomer, unassigned) [Compound 201, 3-chloro-N-[(3-chloro-2-fluorophenyl)(4-fluoro-1-hydroxycyclohexyl)methyl]-2-(trifluoromethyl)pyridine-4-carboxamide], half-maximal inhibition (IC50) required 130 nM.

As for `O=C(NC(c1cccc(F)c1F)C1(O)CCC(F)CC1)c1nccc(C(F)(F)F)c1Cl` (single isomer, unassigned) [Compound 204, 3-chloro-N-[(2,3-difluorophenyl)(4-fluoro-1-hydroxycyclohexyl)methyl]-4-(trifluoromethyl)pyridine-2-carboxamide], the IC50 amounted to 100 nM.

On to `O=C(NC(c1ccccc1Cl)[C@]1(O)CC[C@@H](F)CC1)c1nccc(C(F)(F)F)c1Cl` (single isomer, unassigned) [Compound 210, 3-chloro-N-[(2-chlorophenyl)(cis-4-fluoro-1-hydroxycyclohexyl)methyl]-4-(trifluoromethyl)pyridine-2-carboxamide], for which the midpoint of inhibition, the IC50, lay at 3200 nM.

For the compound `O=C(NC(c1ccccc1Cl)[C@]1(O)CC[C@@H](F)CC1)c1ccnc(C(F)(F)F)c1Cl` (single isomer, unassigned) [Compound 211, 3-chloro-N-[(2-chlorophenyl)(cis-4-fluoro-1-hydroxycyclohexyl)methyl]-2-(trifluoromethyl)pyridine-4-carboxamide], inhibition was half-maximal at 170 nM (IC50).

Turning to `O=C(NC(c1cccc(F)c1Cl)[C@]1(O)CC[C@@H](F)CC1)c1nccc(C(F)(F)F)c1Cl` (single isomer, unassigned) [Compound 213, 3-chloro-N-[(2-chloro-3-fluorophenyl)(cis-4-fluoro-1-hydroxycyclohexyl)methyl]-4-(trifluoromethyl)pyridine-2-carboxamide], it took 37 nM to reach half-maximal inhibition (IC50).

For the compound `O=C(NC(c1cccc(F)c1Cl)[C@]1(O)CC[C@@H](F)CC1)c1nccc(C(F)(F)F)c1Cl` (single isomer, unassigned) [Compound 214, 3-chloro-N-[(2-chloro-3-fluorophenyl)(cis-4-fluoro-1-hydroxycyclohexyl)methyl]-4-(trifluoromethyl)pyridine-2-carboxamide], the IC50 is 450 nM.

`CCn1cc(-c2cccc(C(NC(=O)c3ccc(F)cc3C(F)(F)F)C3(O)CCC(F)(F)CC3)c2)cn1` (single isomer, unassigned) [Compound 215, N-{(4,4-difluoro-1-hydroxycyclohexyl)[3-(1-ethyl-1H-pyrazol-4-yl)phenyl]methyl}-4-fluoro-2-(trifluoromethyl)benzamide] came in with a half-inhibitory concentration (IC50) of 210 nM.

`CCn1cc(-c2cccc(C(NC(=O)c3ccc(F)cc3C(F)(F)F)C3(O)CCC(F)(F)CC3)c2)cn1` (single isomer, unassigned) [Compound 216, N-{(4,4-difluoro-1-hydroxycyclohexyl)[3-(1-ethyl-1H-pyrazol-4-yl)phenyl]methyl}-4-fluoro-2-(trifluoromethyl)benzamide]: the IC50 is 5500 nM.

In the case of `CCn1cc(-c2cccc(C(NC(=O)c3cc(Cl)ccc3C(F)(F)F)C3(O)CCC(F)(F)CC3)c2)cn1` (single isomer, unassigned) [Compound 217, 5-chloro-N-{(4,4-difluoro-1-hydroxycyclohexyl)[3-(1-ethyl-1H-pyrazol-4-yl)phenyl]methyl}-2-(trifluoromethyl)benzamide], the IC50 turned out to be 580 nM.
